Data published in patent US20230373934A1, “ANDROGEN RECEPTOR MODULATORS AND METHODS FOR THEIR USE” (ESSA Pharma, Inc., priority 2022, published 2023).
pIC50: −log10 of the molar value.

Assays:
[1] = molecular target: T1, androgen receptor (AR) (Homo sapiens, UniProt P10275); assay: Androgen-induced PSA-luciferase assay, Luciferase Assay B (cells stably expressing ARR2PB or PSA-firefly luciferase reporter, 384-well); type: cell-based; conditions: Luciferase Assay B (Compounds A186-A219 and A221-A245); stable luciferase reporter cells, 1 h pretreatment, R1881 24 h, serum-free; read-out: PSA-Luc IC50 Range
T1 sequence (P10275 1-920 T878A): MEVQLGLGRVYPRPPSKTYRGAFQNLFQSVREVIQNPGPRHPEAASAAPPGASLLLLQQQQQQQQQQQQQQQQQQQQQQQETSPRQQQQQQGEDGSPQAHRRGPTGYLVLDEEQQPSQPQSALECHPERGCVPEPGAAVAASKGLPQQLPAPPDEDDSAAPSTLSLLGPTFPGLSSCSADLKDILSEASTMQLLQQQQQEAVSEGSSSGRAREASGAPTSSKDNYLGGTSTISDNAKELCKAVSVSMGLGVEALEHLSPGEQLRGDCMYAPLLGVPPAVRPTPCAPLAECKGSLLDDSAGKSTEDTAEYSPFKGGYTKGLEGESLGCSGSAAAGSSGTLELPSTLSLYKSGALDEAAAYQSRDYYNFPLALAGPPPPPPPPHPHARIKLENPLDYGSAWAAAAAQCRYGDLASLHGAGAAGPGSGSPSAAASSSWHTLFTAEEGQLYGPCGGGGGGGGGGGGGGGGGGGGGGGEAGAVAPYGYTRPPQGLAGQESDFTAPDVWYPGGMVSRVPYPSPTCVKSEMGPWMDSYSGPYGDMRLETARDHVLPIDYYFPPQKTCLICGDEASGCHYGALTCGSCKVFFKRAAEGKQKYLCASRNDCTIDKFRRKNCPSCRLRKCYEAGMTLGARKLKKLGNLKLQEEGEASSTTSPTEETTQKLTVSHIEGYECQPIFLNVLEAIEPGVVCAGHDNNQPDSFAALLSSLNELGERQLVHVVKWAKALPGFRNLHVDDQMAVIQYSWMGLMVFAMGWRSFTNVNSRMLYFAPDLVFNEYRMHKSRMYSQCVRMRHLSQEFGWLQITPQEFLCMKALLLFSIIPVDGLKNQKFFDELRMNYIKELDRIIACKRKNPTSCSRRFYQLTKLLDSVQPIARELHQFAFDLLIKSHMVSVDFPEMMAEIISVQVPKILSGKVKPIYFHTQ

[2] = Microsomal stability assay, liver microsome half-life (dog); type: in vitro ADME; conditions: pH 7.4; dog liver microsomes 0.5 mg/mL + NADPH, 1 μM compound, 37° C; read-out: Liver microsome + NADPH T½ (min) Dog
Description: (§1) Microsomal Stability Assay: Microsomal stability assay is a widely used in vitro model to characterize the metabolic conversion by phase I enzymes, such as cytochrome P450 (CYP) enzymes. Since metabolism is known to be highly variable in different species, microsomal stability assay is commonly run in multiple species. Metabolic stability of testing compound can be evaluated using human, rat, mouse, or other animal liver or intestine microsomes to predict intrinsic clearance.
(§2) The assay was carried out in 96-well microtiter plates at 37° C. Reaction mixtures (25 μL) contained a final concentration of 1 μM test compound, 0.5 mg/mL liver microsomes protein, and 1 mM NADPH and/or 1 mM UDPGA (with alamethicin) in 100 mM potassium phosphate, pH 7.4 buffer with 3 mM MgCl2. The incubation was done with N=1, but duplicate incubation at each time point can be prepared if necessary. At each of the time points (for example, 0, 15, 30, and 60 minutes), 150 μL of quench solution (100% acetonitrile with 0.1% formic acid) with internal standard was transferred to each well. Besides the zero minute controls, mixtures containing the same components except the NADPH can also be prepared as the negative control. Verapamil was included as a positive control to verify assay performance. Plates were sealed, vortexed, and centrifuged at 4° C. for 15 minutes at 4000 rpm. The supernatant is transferred to fresh plates for LC/MS/MS analysis.
(§3) Summarized conditions: [Compound]=1 μM, [LM]=0.5 mg/mL, [NADPH]=1 mM and/or [UDPGA]=1 mM, Buffer=100 mM Potassium Phosphate, pH 7.4 with 3 mM MgCl2, Time=0, 15, 30, and 60 min, and Temperature=37° C.
(§4) All samples were analyzed on LC/MS/MS using an AB Sciex API 4000 instrument, coupled to a Shimadzu LC-20AD LC Pump system. Analytical samples were separated using a Waters Atlantis T3 dC18 reverse phase HPLC column (20 mm×2.1 mm) at a flow rate of 0.5 mL/min. The mobile phase consisted of 0.1% formic acid in water (solvent A) and 0.1% formic acid in 100% acetonitrile (solvent B).
(§5) The extent of metabolism is calculated as the disappearance of the test compound, compared to the 0-min time incubation. Initial rates are calculated for the compound concentration and used to determine half-life (t1/2).

[3] = Microsomal stability assay, liver microsome half-life (human); type: in vitro ADME; conditions: pH 7.4; human liver microsomes 0.5 mg/mL + NADPH, 1 μM compound, 37° C; read-out: Liver microsome + NADPH T½ (min) Human
Description: as §1, §2, §3, §4, §5

[4] = Microsomal stability assay, liver microsome half-life (monkey); type: in vitro ADME; conditions: pH 7.4; monkey liver microsomes 0.5 mg/mL + NADPH, 1 μM compound, 37° C; read-out: Liver microsome + NADPH T½ (min) Monkey
Description: as §1, §2, §3, §4, §5

[5] = Microsomal stability assay, liver microsome half-life (rat); type: in vitro ADME; conditions: pH 7.4; rat liver microsomes 0.5 mg/mL + NADPH, 1 μM compound, 37° C; read-out: Liver microsome + NADPH T½ (min) Rat
Description: as §1, §2, §3, §4, §5

[6] = Microsomal stability assay, liver microsome half-life (mouse); type: in vitro ADME; conditions: pH 7.4; mouse liver microsomes 0.5 mg/mL + NADPH, 1 μM compound, 37° C; read-out: Liver microsome + NADPH T½ (min) Mouse
Description: as §1, §2, §3, §4, §5

Row | pIC50 [1] | half-life at 1 μM [2] [min] | half-life at 1 μM [3] [min] | half-life at 1 μM [4] [min] | half-life at 1 μM [5] [min] | half-life at 1 μM [6] [min] | SMILES
1 | 5.70 to 6.30 | > 120 | > 120 | > 120 | > 120 | > 120 | N#Cc1cc(Oc2ccc(-c3ccc4nc(N5CC(O)C5)cnc4c3)cc2)cc(Cl)c1OC1CC1 [Compound A205]
2 | > 6.30 | > 120 | > 120 | > 120 | > 120 | > 120 | CN(c1ccc(-c2ccc3nc(NS(C)(=O)=O)cnc3c2)cc1)c1cc(F)c(OC2CC2)c(C#N)c1 [Compound A208]
3 | 5.70 to 6.30 | > 120 | > 120 | > 120 | > 120 | > 120 | CS(=O)(=O)Nc1nc2ccc(-c3ccc(Oc4cc(Cl)c(OC5CC5)c(C#N)c4)cc3)cc2cc1F [Compound A191]
4 | 5.70 to 6.30 | > 120 | > 120 | > 120 | > 120 | > 120 | [2H]C([2H])([2H])N(c1ccc(-c2ccc3nc(NS(C)(=O)=O)cnc3c2)cc1)c1cc(Cl)c(OC2CC2)c(C#N)c1 [Compound A187]
5 | > 6.30 | > 120 | > 120 | > 120 | > 120 | > 120 | CS(=O)(=O)Nc1nccc(COc2ccc(N(CC(F)(F)F)c3cc(Cl)c(OC4CC4)c(C#N)c3)cc2)n1 [Compound A202]
6 | > 6.30 | > 120 | > 120 | > 120 | > 120 | > 120 | CS(=O)(=O)Nc1cnc2cc(-c3ccc(N(CC(F)(F)F)c4cc(F)c(OC5CC5)c(C#N)c4)cc3)ccc2n1 [Compound A199]
7 | 5.70 to 6.30 | > 120 | > 120 | > 120 | > 120 | > 120 | CS(=O)(=O)Nc1cnc2cc(-c3ccc(Oc4cc(C#N)c(OC5CC5)c(C(F)(F)F)c4)cc3)ccc2n1 [Compound A190]
8 | > 6.30 | > 120 | > 120 | > 120 | > 120 | > 120 | CS(=O)(=O)Nc1cnc2cc(-c3ccc(Oc4cc(C#N)c(OC5CC5)c(C#N)c4)cc3)ccc2n1 [Compound A198]
9 | > 6.30 | > 120 | > 120 | > 120 | > 120 | > 120 | CS(=O)(=O)Nc1cnc2cc(-c3ccc(N(CC(F)(F)F)c4cc(Cl)c(OC5CC5)c(C#N)c4)cc3)ccc2n1 [Compound A186, N-(6-(4-((3-chloro-5-cyano-4-cyclopropoxyphenyl) (2,2,2-trifluoroethyl)amino)phenyl)quinoxalin-2-yl)methanesulfonamide]
